Measurements: BindingDB's records for doi:10.1021/jm020999w (University of Firenze, 2003)

Molecular target: Gamma-aminobutyric acid receptor subunit alpha-1/beta-2/gamma-2 (Rattus norvegicus, UniProt P62813+P63138+P18508)
Test: Binding affinity for recombinant rat GABA-A receptor alpha-1-beta-2-gamma-2 subunits expressed in HEK293 cells

Chain of Gamma-aminobutyric acid receptor subunit alpha-1/beta-2/gamma-2 (P62813 whole entry): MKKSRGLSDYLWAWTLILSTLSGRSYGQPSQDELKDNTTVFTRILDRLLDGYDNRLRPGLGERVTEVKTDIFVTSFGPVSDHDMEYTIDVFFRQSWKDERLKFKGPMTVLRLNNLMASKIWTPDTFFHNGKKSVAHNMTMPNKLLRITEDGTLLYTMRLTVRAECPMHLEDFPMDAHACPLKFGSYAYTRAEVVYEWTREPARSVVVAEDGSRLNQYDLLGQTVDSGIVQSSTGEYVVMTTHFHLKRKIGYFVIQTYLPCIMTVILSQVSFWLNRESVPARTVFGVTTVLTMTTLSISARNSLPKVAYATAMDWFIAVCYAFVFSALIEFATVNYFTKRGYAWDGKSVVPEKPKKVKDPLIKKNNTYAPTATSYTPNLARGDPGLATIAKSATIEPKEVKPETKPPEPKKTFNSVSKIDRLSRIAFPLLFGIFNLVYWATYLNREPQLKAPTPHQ
Chain of Gamma-aminobutyric acid receptor subunit alpha-1/beta-2/gamma-2 (P63138 whole entry): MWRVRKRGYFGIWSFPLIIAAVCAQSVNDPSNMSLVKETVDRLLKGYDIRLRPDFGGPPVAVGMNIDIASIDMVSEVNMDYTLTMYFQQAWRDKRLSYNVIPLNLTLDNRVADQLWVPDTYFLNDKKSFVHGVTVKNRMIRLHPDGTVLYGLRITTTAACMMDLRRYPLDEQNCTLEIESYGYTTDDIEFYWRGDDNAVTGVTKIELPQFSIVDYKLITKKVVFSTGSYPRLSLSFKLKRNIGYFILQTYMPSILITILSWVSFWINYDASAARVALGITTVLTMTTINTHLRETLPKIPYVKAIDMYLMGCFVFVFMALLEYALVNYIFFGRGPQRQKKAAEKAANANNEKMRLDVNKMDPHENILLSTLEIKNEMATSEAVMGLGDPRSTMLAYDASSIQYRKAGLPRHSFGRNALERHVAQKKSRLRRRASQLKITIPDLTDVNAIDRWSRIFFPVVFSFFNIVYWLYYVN
Chain of Gamma-aminobutyric acid receptor subunit alpha-1/beta-2/gamma-2 (P18508 whole entry): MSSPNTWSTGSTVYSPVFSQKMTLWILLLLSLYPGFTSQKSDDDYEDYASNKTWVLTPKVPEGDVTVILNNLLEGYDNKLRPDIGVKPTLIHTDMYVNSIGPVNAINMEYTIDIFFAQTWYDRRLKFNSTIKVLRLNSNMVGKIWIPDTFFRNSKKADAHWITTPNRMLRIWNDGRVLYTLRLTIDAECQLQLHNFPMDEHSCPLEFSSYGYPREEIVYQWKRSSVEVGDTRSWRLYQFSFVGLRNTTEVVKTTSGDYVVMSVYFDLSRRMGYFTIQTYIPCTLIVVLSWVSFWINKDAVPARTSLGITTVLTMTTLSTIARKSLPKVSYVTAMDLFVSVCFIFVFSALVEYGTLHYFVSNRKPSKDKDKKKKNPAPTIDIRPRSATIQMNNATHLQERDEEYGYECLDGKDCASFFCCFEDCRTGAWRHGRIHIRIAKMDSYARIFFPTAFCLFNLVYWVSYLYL

Row | Ki | Compound
1 | 0.01 µM | O=c1c(-c2ccsc2)cnc2c(-c3cccc(Br)c3)c[nH]n12 [3-(3-Bromo-phenyl)-6-thiophen-3-yl-4H-pyrazolo[1,5-a]pyrimidin-7-one]
2 | 0.01 µM | O=c1c(-c2ccsc2)cnc2c(-c3cccc(C(F)(F)F)c3)c[nH]n12 [6-Thiophen-3-yl-3-(3-trifluoromethyl-phenyl)-4H-pyrazolo[1,5-a]pyrimidin-7-one]
